Experimental data: PMC8869984, “Multifunctional Silver(I) Complexes with Metronidazole Drug Reveal Antimicrobial Properties and Antitumor Activity against Human Hepatoma and Colorectal Adenocarcinoma Cells” (Cancers, 2022)
pIC50: −log10 of the molar value.

How the values were obtained:
E. coli ATCC 25922 = assay: micro-dilution broth method (MIC, MBC); type: cell-based, Escherichia coli
V. parvula ATCC 10790 = assay: micro-dilution broth method (MIC, MBC); type: cell-based, Veillonella parvula
B. cereus ATCC 10876 = assay: micro-dilution broth method (MIC, MBC); type: cell-based, Bacillus cereus
P. acnes ATCC 11827 = assay: micro-dilution broth method (MIC, MBC); type: cell-based, Propionibacterium acnes
HepG2 cells [1] = assay: TPC assay (total protein content), 72 h exposure; type: cell-based, human; details: mean ± SD, n = 3
Experimental: (§1) The human hepatoma (HepG2) and colorectal adenocarcinoma (Caco-2) cells were purchased from the American Type Culture Collection: ATCC HB-8065 and ATCC HTB-37, respectively. These cells were cultured in Minimum Essential Medium Eagle (MEME) (ATCC). The murine fibroblasts cell line (Balb/c 3T3 clone A31) (gift from the Department of Swine Diseases of the National Veterinary Research Institute in Pulawy) was cultured in Dulbecco’s Modified Eagle Medium (DMEM) (ATCC). The media were supplemented with 10% BCS (Balb/c 3T3), 10% FBS (HepG2), 20% FBS (Caco-2), 1% L-glutamine, 1% antibiotic solution. The cells were maintained in 75 cm^2 cell culture flasks (NUNC) in a humidified incubator at 37 °C in an atmosphere of 5% CO2. The medium was refreshed every two or three days, and the cells were trypsinized by 0.25% trypsin–0.02% EDTA after reaching 70–80% confluence. Single cell suspensions were prepared and adjusted to a density of 2 × 10^5 cell/mL^−1 (HepG2), 1 × 10^5 cell/mL^−1 (Caco-2) and 5 × 10^4 cell/mL^−1 (Balb/c 3T3). The cell suspension was transferred to 96-well plates (100 µL/well) and incubated for 24 h before the exposure to the studied compounds. Stock solutions of ligands and metal complexes were prepared in sterile water and diluted with culture medium to obtain a concentration range from 0.1 to 10 µM. The final concentration of sterile water was 0.1% in the medium. […] As a negative control, cultured cells were grown in the absence of studied compounds. Each concentration was tested in six replicates in three independent experiments. Cytotoxicity was assessed after 72 h of exposure of the cells to compounds. The medium was not changed during the incubation time.
This assay is based upon staining the total cellular protein (proliferation). After the incubation, the medium containing the drug was removed, and 100 µL Coomassie brilliant blue R-250 dye was added to each well. The plate was shaken for 10 min. Then, the stain was removed and the cells were rinsed twice with 100 µL of washing solution (glacial acetic acid/ethanol/water, 5:10:85, v:v:v). After that, 100 µL of the desorbing solution (1 M potassium acetate) was added, and plates were shaken again for 10 min. The absorbance was measured at 595 nm in a microplate reader Synergy HTX multi-mode reader (BioTek® Instruments Inc., Winooski, VT, USA) using a blank as a reference. Cytotoxicity was expressed as a percentage of the negative control.
The study was performed in three independent experiments. The obtained results are presented as mean values ± SD (standard deviation). The assessment of the cytotoxicity data used a one-way analysis of variance (ANOVA) followed by Dunnett’s post hoc test, which was applied to determine significance relative to the negative control.

HepG2 cells [2] = assay: NRU assay (lysosomal activity), 72 h exposure; type: cell-based, human; details: mean ± SD, n = 3
Experimental: as §1
This method is based on staining living cells with neutral red, which readily diffuses through the plasma membrane and accumulates in lysosomes. […] After 10 min of shaking, the absorbance of the dissolved NR was measured using a Synergy HTX multi-mode reader (BioTek® Instruments Inc., Winooski, VT, USA) at 540 nm using a blank as a reference. Cytotoxicity was expressed as a percentage of the negative control. […]

[3] = tested on: S. typhimurium ATCC 14028; assay: micro-dilution broth method (MIC, MBC); type: cell-based, Salmonella Typhimurium
E. faecalis ATCC 29212 = assay: micro-dilution broth method (MIC, MBC); type: cell-based, Enterococcus faecalis
S. aureus ATCC 25923 = assay: micro-dilution broth method (MIC, MBC); type: cell-based, Staphylococcus aureus
H. pylori ATCC 43504 = assay: micro-dilution broth method (MIC, MBC); type: cell-based
M. luteus ATCC 10240 = assay: micro-dilution broth method (MIC, MBC); type: cell-based, Micrococcus luteus
HepG2 cells [4] = assay: MTT assay (mitochondrial activity), 72 h exposure; type: cell-based, human; details: mean ± SD, n = 3
Experimental: as §1
The metabolic activity of living cells was assessed by the measurement of the activity of dehydrogenases. […] The plate was shaken for 15 min at room temperature and transferred to a microplate reader Synergy HTX multi-mode reader (BioTek® Instruments Inc., Winooski, VT, USA) to measure the absorbance at 570 nm, using a blank as a reference. Cytotoxicity was expressed as a percentage of the negative control. […]

[5] = E. coli ATCC 25922, value in brackets
[6] = V. parvula ATCC 10790, value in brackets
[7] = B. cereus ATCC 10876, value in brackets
[8] = P. acnes ATCC 11827, value in brackets
[9] = S. typhimurium ATCC 14028, value in brackets
[10] = E. faecalis ATCC 29212, value in brackets
[11] = S. aureus ATCC 25923, value in brackets
[12] = H. pylori ATCC 43504, value in brackets
[13] = M. luteus ATCC 10240, value in brackets

`O=S(=O)([O-])[O-].[Ag+].[Ag+]` [Ag2SO4, silver sulfate] showed an MBC (E. coli ATCC 25922; E. coli ATCC 25922) of 62.5 mg/L, an MIC (E. coli ATCC 25922; E. coli ATCC 25922) of 62.5 mg/L and an MBC (E. coli ATCC 25922; [5]) of 0.2 µM/mL. It also gave an MIC (E. coli ATCC 25922; [5]) of 0.2 µM/mL, an MBC (V. parvula ATCC 10790; V. parvula ATCC 10790) of 62.5 mg/L and an MIC (V. parvula ATCC 10790; V. parvula ATCC 10790) of 62.5 mg/L. It also gave an MBC (V. parvula ATCC 10790; [6]) of 0.2 µM/mL, an MIC (V. parvula ATCC 10790; [6]) of 0.2 µM/mL and an MBC (B. cereus ATCC 10876; B. cereus ATCC 10876) of 500 mg/L. It also gave an MIC (B. cereus ATCC 10876; B. cereus ATCC 10876) of 31.3 mg/L, an MBC (B. cereus ATCC 10876; [7]) of 1.6 µM/mL and an MIC (B. cereus ATCC 10876; [7]) of 0.1 µM/mL. The MBC (P. acnes ATCC 11827; P. acnes ATCC 11827) was 500 mg/L, the MIC (P. acnes ATCC 11827; P. acnes ATCC 11827) was 125 mg/L and the MBC (P. acnes ATCC 11827; [8]) was 1.6 µM/mL. The MIC (P. acnes ATCC 11827; [8]) was 0.4 µM/mL, the pIC50 (HepG2 cells [1]) was < 5.00 and the pIC50 (HepG2 cells [2]) was < 5.00. For the same compound, the MBC ([3]; S. typhimurium ATCC 14028) was 250 mg/L, the MIC ([3]; S. typhimurium ATCC 14028) was 31.3 mg/L and the MBC [3, 9] was 0.8 µM/mL. The MIC [3, 9] was 0.1 µM/mL, the MBC (E. faecalis ATCC 29212; E. faecalis ATCC 29212) was 125 mg/L and the MIC (E. faecalis ATCC 29212; E. faecalis ATCC 29212) was 31.3 mg/L. For the same compound, the MBC (E. faecalis ATCC 29212; [10]) was 0.4 µM/mL, the MIC (E. faecalis ATCC 29212; [10]) was 0.1 µM/mL and the MBC (S. aureus ATCC 25923; S. aureus ATCC 25923) was 31.3 mg/L. For the same compound, the MIC (S. aureus ATCC 25923; S. aureus ATCC 25923) was 15.6 mg/L, the MBC (S. aureus ATCC 25923; [11]) was 0.1 µM/mL and the MIC (S. aureus ATCC 25923; [11]) was 0.05 µM/mL. The MBC (H. pylori ATCC 43504; H. pylori ATCC 43504) was 15.6 mg/L, the MIC (H. pylori ATCC 43504; H. pylori ATCC 43504) was 15.6 mg/L and the MBC (H. pylori ATCC 43504; [12]) was 0.05 µM/mL. For the same compound, the MIC (H. pylori ATCC 43504; [12]) was 0.05 µM/mL, the MBC (M. luteus ATCC 10240; M. luteus ATCC 10240) was 125 mg/L and the MIC (M. luteus ATCC 10240; M. luteus ATCC 10240) was 15.6 mg/L. The MBC (M. luteus ATCC 10240; [13]) was 0.4 µM/mL, the MIC (M. luteus ATCC 10240; [13]) was 0.05 µM/mL and the pIC50 (HepG2 cells [4]) was < 5.00.
